In patent publication EP4582432A1, “NOVEL COMPOUND AND MRI CONTRAST AGENT COMPRISING SAME” (Theranocure Co., Ltd., priority 2022, dated 2024):
Read-outs that look alike come from different tables or passages of the source.

How the values were obtained:
[1] = Relaxability (r1 and r2) under 3.0T and 9.4T magnetic fields in water and HSA; format: physicochemical
HSA [2] = biological target: T1, HSA (Homo sapiens, UniProt P02768)
Protocol: (§1) The HSA binding affinity was measured using ultrafiltration analysis.

liver = assay: 3.0T MR imaging of liver and gallbladder in normal mice versus commercial contrast agents; format: in vivo; settings: 5min to 120min after injection, FIG. 9
HSA [3] = biological target: T1, HSA; assay: HSA binding affinity by ultrafiltration analysis
Protocol: as §1

C6 glioma = assay: MR imaging of brain cancer model; format: in vivo; settings: 0.1 mmol/kg Gd-DO3A-butrol versus 0.05 mmol/kg Gd-PCTA-Ach; FIG. 8A
Protocol: After a brain cancer model was prepared using C6 glioma which is a brain cancer cell, 0.1mmol/kg of Gd-PCTA-Ach 0.1mmol/kg, Gd-PCTA-Ach 0.05mmol/kg, and Gd-DO3A-butrol were injected thereto, respectively, to obtain MR images (FIG. 8A) and CNR graphs (FIG. 8B) according to the MR images, and the results are shown in FIG. 8.

[4] = 3.0-T, Water; value marked with footnote a (footnote not given); cited from earlier work
[5] = value marked with footnote a (footnote not given); cited from earlier work

T1 sequence (P02768 25-609): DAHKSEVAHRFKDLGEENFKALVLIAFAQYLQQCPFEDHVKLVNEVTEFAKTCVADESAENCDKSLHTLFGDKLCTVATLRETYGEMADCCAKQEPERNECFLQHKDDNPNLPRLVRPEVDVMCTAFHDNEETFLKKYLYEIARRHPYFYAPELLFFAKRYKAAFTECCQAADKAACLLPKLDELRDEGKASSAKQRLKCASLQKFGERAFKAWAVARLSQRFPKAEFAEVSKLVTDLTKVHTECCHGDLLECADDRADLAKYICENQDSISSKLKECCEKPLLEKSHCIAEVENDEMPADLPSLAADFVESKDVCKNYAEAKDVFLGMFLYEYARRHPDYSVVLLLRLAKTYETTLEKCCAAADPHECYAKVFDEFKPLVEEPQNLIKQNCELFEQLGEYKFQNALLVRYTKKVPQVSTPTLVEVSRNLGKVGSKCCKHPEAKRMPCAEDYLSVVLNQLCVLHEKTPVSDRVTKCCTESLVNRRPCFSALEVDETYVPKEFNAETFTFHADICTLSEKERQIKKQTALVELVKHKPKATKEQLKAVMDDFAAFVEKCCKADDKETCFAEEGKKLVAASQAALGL
Description for Hydrophilicity (log P): The Log P value is a value for evaluating the hydrophilicity. When the P value is smaller than 1, the Log P value becomes negative to indicate the hydrophilicity. When the P value is greater than 1, the Log P value becomes positive to indicate lipophilicity.

Compound	r1 ([1]; 3.0-T, HSA)	r2 ([1]; 3.0-T, HSA)	r1 ([1]; 3.0-T, Water)	r2 ([1]; 3.0-T, Water)	r1 ([1]; 9.4-T, Water)	r2 ([1]; 9.4-T, Water)	HSA bindin g affinity (%) (HSA [2])	gallbladder contrast enhancement over time (liver)	log P (log Co/Cw) (Hydrophilicity (log P))	HSA bindin g affinity (%) (HSA [3])	brightness in MR image (C6 glioma)	r1 [4]	log P (log Co/Cw) [5]
O=C([O-])CN(CCN(CC(=O)[O-])CC(=O)[O-])CCN(CC(=O)[O-])C(COCc1ccccc1)C(=O)[O-].[Gd+3] (stereo not shown) [Gd-BOPTA]	5.8 ± 0.2 mM⁻¹ s⁻¹	9.0 ± 0.3 mM⁻¹ s⁻¹	5.1 ± 0.02 mM⁻¹ s⁻¹	6.8 ± 0.4 mM⁻¹ s⁻¹	6.1 ± 1.1 mM⁻¹ s⁻¹	8.1 ± 1.4 mM⁻¹ s⁻¹	15.0%	initially enhanced, and then was observed to decrease slowly	–	–	–	–	–
Gd-DO3A-butrol	4.3 ± 0.1 mM⁻¹ s⁻¹	6.5 ± 0.1 mM⁻¹ s⁻¹	4.3 ± 0.2 mM⁻¹ s⁻¹	5.5 ± 0.02 mM⁻¹ s⁻¹	4.9 ± 0.9 mM⁻¹ s⁻¹	6.4 ± 1.1 mM⁻¹ s⁻¹	–	–	-3.1	3.4%	comparable	–	–
CCOc1ccc(C[C@@H](CN(CCN(CC(=O)[O-])CC(=O)[O-])CC(=O)[O-])N(CC(=O)[O-])CC(=O)[O-])cc1.[Gd+3].[Na+].[Na+] [Gd-EOB-DTPA]	7.7 ± 0.1 mM⁻¹ s⁻¹	11.1 ± 0.04 mM⁻¹ s⁻¹	6.5 ± 0.04 mM⁻¹ s⁻¹	7.3 ± 0.4 mM⁻¹ s⁻¹	7.4 ± 1.4 mM⁻¹ s⁻¹	10.7 ± 1.9 mM⁻¹ s⁻¹	–	initially enhanced, and then was observed to decrease slowly	-2.9	8.9%	–	–	–
O=C(CCC(C(=O)[O-])N1CCN(C(CCC(=O)NCC(O)CO)C(=O)[O-])Cc2cccc(n2)CN(C(CCC(=O)NCC(O)CO)C(=O)[O-])CC1)NCC(O)CO.[Gd+3] (stereo not shown) [Gadopiclenol]	–	–	–	–	–	–	–	–	–	–	–	11.3 mM⁻¹ s⁻¹	-4.2
